Test system: Female CFLP mice
Assay: Anti-hyperglycaemic activity: subcutaneous glucose load in fasted mice, area under blood glucose curve
Type: in vivo
Conditions: 24 h fasted female CFLP mice, glucose 1 g/kg s.c. 30 min after dosing, 2-hour AUC vs water controls
Description: Female CFLP mice, weighing approximately 25g, were fasted for 24 hours prior to the study. The compounds under study were administered orally as an aqueous solution to each of 6 mice. Thirty minutes later a blood sample (20ul) was obtained from the tail for the analysis of blood glucose. Immediately after taking this blood sample, glucose (lg/kg body weight) was administered subcutaneously to each mouse. Six mice were given water as a control. Blood samples were then obtained from each mouse at 30 minute intervals for 120 minutes.
Compounds that produced a significant (p<0.05) reduction of blood glucose, compared with control mice given water, at any time interval were considered active. The area under the blood glucose curve over the 2-hour period after the administration of the glucose was calculated for each compound and compared with the value for control animals.

[1] = Dose 5 µmol/kg orally as aqueous solution

For `O[C@@H](CNCCOc1ccc(OCCNC[C@H](O)c2ccccc2)cc1)c1ccccc1` [Example 3, (R,R)-a-a'-[1,4-Phenylenedioxybis [(2,1-ethanediyl)-imino]methylene] bis [benzenemethanol]], the “% Reduction in area under blood glucose curve” value (“% Reduction in area” below) [1] was 10%.

In the case of `O[C@@H](CNCCc1ccc(CCNC[C@H](O)c2ccccc2)cc1)c1ccccc1` [Example 4, (R,R)-a,a'-[1,4-Phenylenebis [(2,1-ethanediyl)imino]-methylene]bis[benzenemethanol]], the “% Reduction in area” value (Dose 12.5 µmol/kg orally as aqueous solution) is reported as 4.2%.

In the case of `O[C@@H](CNCCc1ccc(CCNC[C@H](O)c2cccc(Cl)c2)cc1)c1cccc(Cl)c1` [Example 6, (R,R)-a,a'-[1,4-Phenylenebis[(2,1-ethanediyl]imino]-methylene]bis[3-chlorobenzenemethanol]], the “% Reduction in area” value [1] is reported as 48%.

With `C[C@H](Cc1ccc(C[C@@H](C)NC[C@H](O)c2cccc(Cl)c2)cc1)NC[C@H](O)c1cccc(Cl)c1` [Example 2, (R,R,R,R)-α,α'-[1,4-Phenylenebis[(1-methyl-2,1-ethanediyl)imino]methylene]bis[3-chlorobenzenemethanol]] the “% Reduction in area” value (Dose 25 µmol/kg orally as aqueous solution) was 49%.

In the case of `O[C@@H](CNCCOc1ccc(OCCNC[C@H](O)c2cccc(Cl)c2)cc1)c1cccc(Cl)c1` [Example 5, (R,R)-α,α^1-[1,4-Phenylenedioxybis[(2,1-ethanediyl)-imino]methylene]bis[3-chlorobenzenemethanol]], the “% Reduction in area” value (Dose 2.5 µmol/kg orally as aqueous solution) is reported as 30%.

— EP0196849A2, “Aminohydroxyalkylbenzene anti-obesity and/or anti-hyperglycaemic agents” (BEECHAM GROUP PLC, priority 1985, dated 1986)
